Literature values as cited in US20080242731A1, “TOPICAL ANESTHESIA FORMULATION FOR BODILY CAVITIES” (T&A PHARMA PTY. LIMITED, priority 2003, published 2008).

Conditions: maintained at pH 7, low concentration, within 4 weeks

CCN(CC)CC(=O)Nc1c(C)cccc1C [lignocaine, Lignocaine]
degradation: 35%
